Earlier results in patent US7799547B2, “Purified polypeptides from Staphylococcus aureus” (Affinium Pharmaceuticals, Inc., priority 2003, dated 2010).

Experiments:
[1] = target: E. coli FabI (Escherichia coli, UniProt P0AEK4)
[2] = target: S. aureus FabI (Staphylococcus aureus, UniProt Q6GI75)
[3] = test system: panel of clinical isolates of S. aureus; details: clinical isolates of S. aureus resistant to different classes of antibiotics
[4] = test system: MRSA strain WCUH29; details: rat, oral administration at 50 mg/kg

Chain of E. coli FabI (P0AEK4 whole entry): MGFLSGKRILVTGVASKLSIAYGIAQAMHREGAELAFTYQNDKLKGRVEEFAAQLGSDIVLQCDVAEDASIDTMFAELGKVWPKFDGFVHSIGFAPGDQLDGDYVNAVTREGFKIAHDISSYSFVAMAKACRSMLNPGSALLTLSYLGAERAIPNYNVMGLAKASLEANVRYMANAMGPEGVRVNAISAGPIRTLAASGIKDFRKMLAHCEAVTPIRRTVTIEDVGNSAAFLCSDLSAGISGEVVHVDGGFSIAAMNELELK

Row | MIC90 fold lower than those of the commercial antibiotics tested [3] [fold] | Compound | Inhibition of E. coli FabI [1] | Inhibition of S. aureus FabI [2] | Reduction in bacterial counts relative to untreated controls [4] [log]
1 |  | Oc1c(Cl)cc(Cl)c(Cl)c1Cc1c(O)c(Cl)cc(Cl)c1Cl [hexachlorophene] | inhibited | inhibited | 
2 | > 500 | Cc1[nH]c2ccccc2c1CN(C)C(=O)/C=C/c1cnc2c(c1)CCC(=O)N2 [API-1135] |  |  | 3.5
3 |  | Oc1cc(Cl)ccc1Oc1ccc(Cl)cc1Cl [triclosan] | inhibited | inhibited | 
